Source: patent US20090326037A1 (priority 2005, published 2009)
“And” between values parts separate entries of the source, which are not always exact repeats. Equal entries are not always repeated. Where two headings read alike, the source gives them in different places.

Assays:
[1] = system: avian influenza virus (H5N1); assay type: in vivo, white mice; conditions: Oseltamivir 2.5 mg/kg alone (Arbidol 0 mg/kg), orally
[2] = system: influenza A/Singapore/1/57 virus; test: microbe, parasite or virus in culture; assay type: cell-based; conditions: for Percent of inhibition of OD 490: two values: A series, added 2 hours after infection; for suppression of reproduction: ten times greater amount (than 3.3 mg) of zanamivir or oseltamivir without the addition of arbidol
[3] = Toxicity (lethal effect, LD50) in mice; assay type: in vivo
Procedure: (§1) Determination of toxicity of 1-methyl-2-phenylthiomethyl-3-carbethoxy-5-oxy-6-bromindol sulfon as compared with arbidol.
(§2) The administration of the preparations was carried out endogastrically, the period of observation of the animals was 14 days.

[4] = system: influenza virus A/PR/8/34; assay type: cell-based; conditions: influenza virus A/PR/8/34, MDCK cells; concentration not given
[5] = system: influenza virus H3N2; assay type: in vivo, mice
[6] = Toxicity (lethal effect, LD50) in rats; assay type: in vivo
Procedure: as §1, §2

[7] = Dose 100 mg/kg, endogastrically, observation 14 days
[8] = Dose 250 mg/kg, endogastrically, observation 14 days
[9] = Dose 500 mg/kg, endogastrically, observation 14 days
[10] = Dose 1000 mg/kg, endogastrically, observation 14 days
[11] = Dose 3000 mg/kg, endogastrically, observation 14 days
[12] = Dose 5000 mg/kg, endogastrically, observation 14 days
[13] = Dose 7500 mg/kg, endogastrically, observation 14 days

SMILES: CCOC(=O)C1=C[C@@H](OC(CC)CC)[C@H](NC(C)=O)[C@@H](N)C1 [Oseltamivir]
- Surviving mice, % [1]: 60%
- Percent of inhibition of OD 490 ([2]; Oseltamivir 0.4 μg alone (A or C 0 μg/ml), C series): 36% and 18%
- Percent of inhibition of OD 490 ([2]; Oseltamivir 4.1 μg alone (A or C 0 μg/ml), C series): 37% and 20%
- Percent of inhibition of OD 490 ([2]; Oseltamivir 12.3 μg alone (A or C 0 μg/ml), C series): 48% and 34%
- Percent of inhibition of OD 490 ([2]; Oseltamivir 41 μg alone (A or C 0 μg/ml), C series): 52% and 36%
- suppression of reproduction [2]: 50%

SMILES: CCOC(=O)c1c(CS(=O)(=O)c2ccccc2)n(C)c2cc(Br)c(O)cc12 [Sulfon, 1-methyl-2-phenylthiomethyl-3-carbethoxy-5-oxy-6-bromindol sulfon]
- Lethal effect upon administration to mice [3, 7]: 0/6
- Lethal effect upon administration to mice [3, 8]: 0/6
- Lethal effect upon administration to mice [3, 9]: 0/6
- Lethal effect upon administration to mice [3, 10]: 0/6
- Lethal effect upon administration to mice [3, 11]: 2/6
- Lethal effect upon administration to mice [3, 12]: 4/6
- Lethal effect upon administration to mice [3, 13]: 6/6
- toxicity as compared with arbidol ([3]; Table 5 (mice and rats), endogastrically): significantly less toxic than arbidol
- LD50 relative to arbidol ([3]; mice, sulfon LD50 versus arbidol LD50): 4 times
- LD50 at 14 days ([3]; mouse, in vivo, oral, mice, endogastrically, observation 14 days): 3600 ± 180 mg/kg
- Percent of suppression of virus reproduction [4]: 75%
- Percent of surviving mice ([5]; Concentration 15): 90%
- Percent of surviving mice ([5]; Concentration 30): 70%
- Percent of surviving mice ([5]; Concentration 100): 40% and 50% and 60%
- antiviral action in vivo as compared with arbidol ([5]; mouse, in vivo): comparable with the action of arbidol
- Lethal effect upon administration to rats [6, 7]: 0/6
- Lethal effect upon administration to rats [6, 8]: 0/6
- Lethal effect upon administration to rats [6, 9]: 0/6
- Lethal effect upon administration to rats [6, 10]: 0/6
- Lethal effect upon administration to rats [6, 11]: 2/6
- Lethal effect upon administration to rats [6, 12]: 4/6
- Lethal effect upon administration to rats [6, 13]: 6/6
- LD50 at 14 days ([6]; rat, in vivo, oral, rats, endogastrically, observation 14 days): 5350 ± 250 mg/kg
- LD50 relative to arbidol ([6]; rats, sulfon LD50 versus arbidol LD50): 3 times

SMILES: CC(=O)N[C@H]1[C@H]([C@H](O)[C@H](O)CO)OC(C(=O)O)=C[C@@H]1N=C(N)N [Zanamivir]
- Percent of inhibition of OD 490 ([2]; Zanamivir 0.3 μg alone (A or B 0 μg/ml), B series): 27% and 15%
- Percent of inhibition of OD 490 ([2]; Zanamivir 1 μg alone (A or B 0 μg/ml), B series): 29% and 15%
- Percent of inhibition of OD 490 ([2]; Zanamivir 3.3 μg alone (A or B 0 μg/ml), B series): 36% and 20%
- Percent of inhibition of OD 490 ([2]; Zanamivir 10 μg alone (A or B 0 μg/ml), B series): 43% and 22%
- Percent of inhibition of OD 490 ([2]; Zanamivir 33 μg alone (A or B 0 μg/ml), B series): 49% and 28%
- suppression of reproduction [2]: 50%
